Experimental data as given in patent US12121027B2, “Herbicidal combinations” (UPL LTD, priority 2018, dated 2024).

Key:
[1] = test system: Chenopodium album; test: Herbicidal mixture trial, percentage weed control; assay type: in vivo; details: Pinoxaden 46 g/ha, Metribuzin 280 g/ha, 2,4-D 500 g/ha
Method: (§1) Trials were carried out for evaluating the herbicidal mixtures of the invention on different weeds. The percentage control was calculated from the observed percent weed coverage data after 15 DAA and 30 DAA.

[2] = test system: Phalaris minor; test: Herbicidal mixture trial, percentage weed control; assay type: in vivo; details: Pinoxaden 46 g/ha, Metribuzin 280 g/ha, 2,4-D 500 g/ha
Method: as §1

[3] = 15 DAA, combination 64 g/ha + 725 g/ha + 280 g/ha
[4] = 30 DAA, combination 64 + 725 + 280

CCc1cc(C)cc(CC)c1-c1c(OC(=O)C(C)(C)C)n2n(c1=O)CCOCC2 [Pinoxaden, N 8-(2,6-diethyl-p-tolyl)-1,2,4,5-tetrahydro-7-oxo-7H-pyrazolo[1,2-d][1,4,5]oxadiazepin-9-yl 2,2-dimethylpropionate]
percentage control, Actual [1, 3]: 68%
percentage control, Actual [1, 4]: 85.3%
percentage control, Actual [2, 3]: 53.4%
percentage control, Actual [2, 4]: 73.6%

O=C(O)COc1ccc(Cl)cc1Cl [2,4-D]
percentage control, Actual [1, 3]: 90.3%
percentage control, Actual [1, 4]: 86%
percentage control, Actual [2, 3]: 29%
percentage control, Actual [2, 4]: 30.2%

CSc1nnc(C(C)(C)C)c(=O)n1N [Metribuzin]
percentage control, Actual [1, 3]: 78%
percentage control, Actual [1, 4]: 88%
percentage control, Actual [2, 3]: 67.4%
percentage control, Actual [2, 4]: 73.8%
